Test results: patent publication US20230263826A1, “Compositions and Methods for Treatment and Prevention of Type 1 Diabetes” (The UAB Research Foundation, priority 2021, published 2023)

Molecular target: T1, iPLA2β (Mus musculus, UniProt P97819)
T1 construct: from tissue; host or cells: whole animal: female NOD mice (wild-type Pla2g6), urine collected for PGE2 metabolites
T1 sequence (P97819 1-807): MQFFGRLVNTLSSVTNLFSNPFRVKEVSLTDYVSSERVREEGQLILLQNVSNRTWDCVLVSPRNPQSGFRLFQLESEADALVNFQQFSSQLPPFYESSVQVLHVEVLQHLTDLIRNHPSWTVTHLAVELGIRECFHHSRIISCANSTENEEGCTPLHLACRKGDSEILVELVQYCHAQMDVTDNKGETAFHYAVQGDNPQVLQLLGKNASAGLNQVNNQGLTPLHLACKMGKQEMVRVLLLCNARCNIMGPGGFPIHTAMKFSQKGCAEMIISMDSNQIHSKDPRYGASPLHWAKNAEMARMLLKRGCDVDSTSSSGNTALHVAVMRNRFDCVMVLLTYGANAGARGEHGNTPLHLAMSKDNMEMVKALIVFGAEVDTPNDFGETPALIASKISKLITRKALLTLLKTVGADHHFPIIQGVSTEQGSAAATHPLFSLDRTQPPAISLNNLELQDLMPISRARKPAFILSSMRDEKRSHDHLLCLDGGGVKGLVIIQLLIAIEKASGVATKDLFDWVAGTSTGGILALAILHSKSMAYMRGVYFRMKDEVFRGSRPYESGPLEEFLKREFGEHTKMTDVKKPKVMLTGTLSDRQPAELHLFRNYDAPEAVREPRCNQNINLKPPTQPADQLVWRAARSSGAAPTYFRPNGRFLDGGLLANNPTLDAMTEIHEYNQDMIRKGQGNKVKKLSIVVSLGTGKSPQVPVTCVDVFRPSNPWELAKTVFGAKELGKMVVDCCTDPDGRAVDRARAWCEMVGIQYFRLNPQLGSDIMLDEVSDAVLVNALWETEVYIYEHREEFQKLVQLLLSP
Assay: Urinary PGE2 metabolites (PGEM), reflecting in vivo inhibition of iPLA2β activity
Conditions: 8-week regimen group; 18 weeks of age
Procedure: FIGS. 1A-1M show the effects of temporal FKGK18 regimen on T1D incidence and islet phenotype, wherein female NOD mice were administered FKGK18 (20 mg/kg, 3 × weekly) or vehicle (PBS-T) starting at 4 or 8 weeks of age. FIGS. 1A and 1B show diabetes incidence; blood glucose was monitored weekly in the 4-week (FIG. 1A; n = 17 and 15 for PBS-T and FKGK18 groups, respectively) and 8-week (FIG. 1B; n = 15 each in the PBS-T and FKGK18 groups) regimen groups for up to 30 weeks. Two consecutive readings of ≥ 275 mg/dL were recorded as onset of T1D (^†P < 0.05). FIGS. 1C-1F show glucose tolerance test (GTT) results, wherein overnight fasted mice were administered glucose (2 g/kg, i.p.), glucose levels in blood from tail vein were monitored over a 2-hour period, and AUC were generated. […] FIGS. 1H and 1I show β Cell mass (PBS-T, n = 15; FKGK18, n = 14) (FIG. 1H) and circulating insulin (n = 15 in each group) (FIG. 1I) were determined at sacrifice (PBS-T, 14-30 weeks of age; FKGK18, 16-36 weeks of age). FIGS. 1J and 1K show islet infiltration; paraffin sections (10 µm) of pancreas were prepared and stained with H&E. Percent infiltration for each islet was calculated as the value of noninfiltrated area subtracted from total islet area (% infiltrate = 100 × [(total area - noninfiltrated area)/(total area)]) using ImageJ software. […]

urinary PGE2 metabolites (PGEM) relative to vehicle-treated mice: reduced
Structure (SMILES): O=C(CCCCc1ccc2ccccc2c1)C(F)(F)F [FKGK18]
